Reference: PubChem BioAssay (NCI)
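Cultured in 96-well plates, cells were exposed to test compound for 48 hours across five concentrations. Definition used: TGI = concentration required for complete inhibition of growth.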

What was measured:
Experiment in all cases: NCI tumour cell line growth inhibition, 48 h
786-0 renal = test system: 786-0 renal
A498 renal = test system: A498 renal
A549 NSCLC = test system: A549 NSCLC
ACHN renal = test system: ACHN renal
CAKI-1 renal = test system: CAKI-1 renal
CCRF-CEM leukemia = test system: CCRF-CEM leukemia
COLO 205 colon = test system: COLO 205 colon
DU-145 prostate = test system: DU-145 prostate
EKVX NSCLC = test system: EKVX NSCLC
HCC-2998 colon = test system: HCC-2998 colon
HCT-116 colon = test system: HCT-116 colon
HCT-15 colon = test system: HCT-15 colon
HL-60(TB) leukemia = test system: HL-60(TB) leukemia
HOP-62 NSCLC = test system: HOP-62 NSCLC
HS 578T breast = test system: HS 578T breast
HT29 colon = test system: HT29 colon
IGROV1 ovarian = test system: IGROV1 ovarian
K-562 leukemia = test system: K-562 leukemia
KM12 colon = test system: KM12 colon
M14 melanoma = test system: M14 melanoma
MALME-3M melanoma = test system: MALME-3M melanoma
MCF7 breast = test system: MCF7 breast
MDA-MB-231 breast = test system: MDA-MB-231 breast
MDA-MB-435 = test system: MDA-MB-435
MDA-N = test system: MDA-N
MOLT-4 leukemia = test system: MOLT-4 leukemia
NCI-H226 lung = test system: NCI-H226 lung
NCI-H23 lung = test system: NCI-H23 lung
NCI-H460 lung = test system: NCI-H460 lung
NCI/ADR-RES ovarian = test system: NCI/ADR-RES ovarian
OVCAR-3 ovarian = test system: OVCAR-3 ovarian
OVCAR-4 ovarian = test system: OVCAR-4 ovarian
OVCAR-5 ovarian = test system: OVCAR-5 ovarian
OVCAR-8 ovarian = test system: OVCAR-8 ovarian
PC-3 prostate = test system: PC-3 prostate
RPMI-8226 leukemia = test system: RPMI-8226 leukemia
RXF 393 renal = test system: RXF 393 renal
SF-268 CNS = test system: SF-268 CNS
SF-295 CNS = test system: SF-295 CNS
SF-539 CNS = test system: SF-539 CNS
SK-MEL-2 melanoma = test system: SK-MEL-2 melanoma
SK-MEL-28 melanoma = test system: SK-MEL-28 melanoma
SK-MEL-5 melanoma = test system: SK-MEL-5 melanoma
SK-OV-3 ovarian = test system: SK-OV-3 ovarian
SN12C renal = test system: SN12C renal
SNB-19 CNS = test system: SNB-19 CNS
SNB-75 CNS = test system: SNB-75 CNS
SR leukemia = test system: SR leukemia
SW-620 colon = test system: SW-620 colon
T-47D breast = test system: T-47D breast
TK-10 renal = test system: TK-10 renal
UACC-257 melanoma = test system: UACC-257 melanoma
UACC-62 melanoma = test system: UACC-62 melanoma
UO-31 renal = test system: UO-31 renal
BT-549 breast = test system: BT-549 breast
HOP-92 NSCLC = test system: HOP-92 NSCLC
NCI-H522 lung = test system: NCI-H522 lung
U251 CNS = test system: U251 CNS
LOX IMVI melanoma = test system: LOX IMVI melanoma

Measured: TGI

CC1CC(C)C(C#N)N(C)c2ccccc21 (centres undefined)
64.9 µM: HL-60(TB) leukemia
92.2 µM: SR leukemia
not listed: BT-549 breast | HOP-92 NSCLC | NCI-H522 lung | U251 CNS | LOX IMVI melanoma
> 100 µM: all other assays above

O=C(NC1=C(Cl)C(=O)c2ccccc2C1=O)c1ccc(F)cc1
17.1 µM: MCF7 breast
14.5 µM: SN12C renal
10.7 µM: PC-3 prostate
12.9 µM: MDA-N
26.8 µM: HOP-62 NSCLC
10.6 µM: HCT-116 colon | NCI-H460 lung
20 µM: OVCAR-4 ovarian
1.84 µM: NCI-H522 lung
18.3 µM: DU-145 prostate
19.3 µM: OVCAR-8 ovarian
78.9 µM: EKVX NSCLC
7.43 µM: UACC-257 melanoma
17.3 µM: SNB-19 CNS
64.7 µM: HS 578T breast
16.5 µM: OVCAR-5 ovarian
3.73 µM: MALME-3M melanoma
15.1 µM: HCC-2998 colon
14.8 µM: HCT-15 colon | NCI/ADR-RES ovarian
13.8 µM: SF-295 CNS
2.85 µM: UACC-62 melanoma
14.2 µM: MDA-MB-435
2.51 µM: SW-620 colon
4.85 µM: ACHN renal
13.7 µM: NCI-H23 lung
38.9 µM: SF-268 CNS
18.9 µM: MDA-MB-231 breast
12.2 µM: U251 CNS
18.4 µM: SK-MEL-28 melanoma
11.5 µM: HT29 colon | IGROV1 ovarian
3.34 µM: HOP-92 NSCLC
5.4 µM: RXF 393 renal
22.1 µM: SNB-75 CNS
12.5 µM: KM12 colon | M14 melanoma
8.33 µM: COLO 205 colon
4.93 µM: T-47D breast
18.7 µM: SF-539 CNS
14.7 µM: BT-549 breast
12.3 µM: OVCAR-3 ovarian
14.6 µM: TK-10 renal
8.37 µM: NCI-H226 lung
> 100 µM: 786-0 renal | A549 NSCLC | HL-60(TB) leukemia | RPMI-8226 leukemia | SR leukemia
7.13 µM: MOLT-4 leukemia

N#Cc1sc2c(c1OC(=O)c1ccccc1)c(=O)n(-c1ccccc1)c(=S)n2-c1ccccc1
68.6 µM: EKVX NSCLC
32.7 µM: RXF 393 renal
39.4 µM: HCT-15 colon
49.3 µM: NCI/ADR-RES ovarian
66.6 µM: PC-3 prostate
58.9 µM: NCI-H23 lung
59.2 µM: MDA-MB-231 breast
61.4 µM: HL-60(TB) leukemia
29.8 µM: NCI-H522 lung
34.2 µM: COLO 205 colon
80.3 µM: SK-MEL-2 melanoma
70.3 µM: SF-295 CNS
40.6 µM: HCT-116 colon | M14 melanoma
67.9 µM: MDA-MB-435
35.6 µM: UO-31 renal
46.9 µM: T-47D breast
40.8 µM: NCI-H226 lung
28.5 µM: SK-MEL-5 melanoma
51.8 µM: MOLT-4 leukemia
52.2 µM: HS 578T breast
65.1 µM: MDA-N
68.9 µM: HCC-2998 colon
43.5 µM: KM12 colon
80.7 µM: OVCAR-4 ovarian
72.4 µM: SK-MEL-28 melanoma
45.7 µM: IGROV1 ovarian
47.8 µM: SF-539 CNS
66.5 µM: RPMI-8226 leukemia
77.7 µM: SN12C renal
51.7 µM: LOX IMVI melanoma
40.9 µM: UACC-62 melanoma
85.1 µM: 786-0 renal
46.5 µM: HOP-62 NSCLC
53.3 µM: U251 CNS
43.6 µM: MCF7 breast
50 µM: MALME-3M melanoma
61.6 µM: CCRF-CEM leukemia
not listed: A498 renal | ACHN renal | OVCAR-5 ovarian | SNB-75 CNS | HOP-92 NSCLC
> 100 µM: all other assays above

O=[N+]([O-])c1cccc2nnccc12
27 µM: SK-MEL-5 melanoma
14.4 µM: HL-60(TB) leukemia
58 µM: NCI-H226 lung
71.4 µM: HOP-92 NSCLC
28.3 µM: HCT-15 colon
39.9 µM: UACC-257 melanoma
34.2 µM: UACC-62 melanoma
29.4 µM: HCT-116 colon
87.1 µM: SNB-19 CNS
95.4 µM: UO-31 renal
20.6 µM: NCI-H522 lung
42.2 µM: NCI-H460 lung
53.6 µM: HT29 colon
34.1 µM: COLO 205 colon
32.5 µM: MDA-MB-435
30 µM: ACHN renal
34.5 µM: MDA-N
90.6 µM: CAKI-1 renal
26.9 µM: MALME-3M melanoma
50.4 µM: 786-0 renal
not listed: A498 renal | CCRF-CEM leukemia | HCC-2998 colon | HOP-62 NSCLC | MDA-MB-231 breast | OVCAR-3 ovarian | OVCAR-4 ovarian | SK-MEL-28 melanoma | SR leukemia | LOX IMVI melanoma
> 100 µM: all other assays above

Cc1n[nH]c(=O)n1N1C(=O)CCCC1=O
62.8 µM: MOLT-4 leukemia
not listed: ACHN renal | HCT-15 colon | HL-60(TB) leukemia | KM12 colon | NCI-H460 lung | OVCAR-4 ovarian | RPMI-8226 leukemia | SK-MEL-28 melanoma | SNB-19 CNS | SR leukemia | SW-620 colon | UO-31 renal | HOP-92 NSCLC | LOX IMVI melanoma
> 100 µM: all other assays above

Cn1c(=O)c2c(nc3n2CC(=O)N3CCCCl)n(C)c1=O
not listed: MALME-3M melanoma | RXF 393 renal | SF-539 CNS | SR leukemia | NCI-H522 lung
> 100 µM: all other assays above

CN1c2ccccc2C(=O)NC12CCN(CCCC(=O)c1ccc(F)cc1)CC2
40.3 µM: HCC-2998 colon
30.4 µM: COLO 205 colon
87.6 µM: UACC-257 melanoma
77.8 µM: K-562 leukemia
88.9 µM: SF-268 CNS
32.5 µM: M14 melanoma
86.5 µM: MALME-3M melanoma
71.2 µM: MOLT-4 leukemia
56.1 µM: HT29 colon
79.6 µM: SK-MEL-5 melanoma
not listed: A498 renal | NCI-H460 lung | SNB-19 CNS | TK-10 renal | LOX IMVI melanoma
> 100 µM: all other assays above

NNC(=O)CS(=O)(=O)Nc1ncccn1
not listed: CCRF-CEM leukemia | HCC-2998 colon | HL-60(TB) leukemia | MOLT-4 leukemia | SR leukemia
> 100 µM: all other assays above
